Data: the supplement of paper PMC10307832

How the values were obtained:
Test in all cases: relative viability (nuclei count vs DMSO), 5 days (fraction); higher = more cells survive
AZD1208 + Dasatinib = compound: N[C@@H]1CCCN(c2c(/C=C3\SC(=O)NC3=O)cccc2-c2ccccc2)C1 [AZD1208] + Cc1nc(Nc2ncc(C(=O)Nc3c(C)cccc3Cl)s2)cc(N2CCN(CCO)CC2)n1 [Dasatinib] (partner 0.075 µM)
Method in brief: (§1)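 For relative viability, nuclei counts in treated wells were divided by those in vehicle wells. Lung cancer cell lines had been pin-tool dosed in 1536-well plates the day after seeding and cultured for 5 days, then fixed and stained in one step (final 0.05% Triton X-100, 1% formaldehyde, 1 ug/ml Hoechst) and imaged at 4×. Doses were one drug alone or a fixed anchor-drug dose plus five library-drug doses (not always all listed) in √10 steps, and values are duplicate-plate medians.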

XMD14-99 + Decitabine = compound: CN1CCN(CC1)C2=CC(=C(C=C2)NC3=NC(=C(S3)C(=O)C4=C(C=CC=C4Cl)Cl)N)OC [XMD14-99] + Nc1ncn([C@H]2C[C@H](O)[C@@H](CO)O2)c(=O)n1 [Decitabine] (partner 2 µM)
Method in brief: as §1

AZD1208 + Luminespib = compound: N[C@@H]1CCCN(c2c(/C=C3\SC(=O)NC3=O)cccc2-c2ccccc2)C1 [AZD1208] + CCNC(=O)c1noc(-c2cc(C(C)C)c(O)cc2O)c1-c1ccc(CN2CCOCC2)cc1 [Luminespib] (partner 0.01 µM)
Method in brief: as §1

XMD14-99 + Bortezomib = compound: CN1CCN(CC1)C2=CC(=C(C=C2)NC3=NC(=C(S3)C(=O)C4=C(C=CC=C4Cl)Cl)N)OC [XMD14-99] + CC(C)C[C@H](NC(=O)[C@H](Cc1ccccc1)NC(=O)c1cnccn1)B(O)O [Bortezomib] (partner 0.002 µM)
Method in brief: as §1

Cell Line | relative viability (AZD1208 + Dasatinib; first compound 0.08 µM) | relative viability (AZD1208 + Dasatinib; first compound 0.253 µM) | relative viability (AZD1208 + Dasatinib; first compound 0.8 µM) | relative viability (AZD1208 + Dasatinib; first compound 2.53 µM) | relative viability (AZD1208 + Dasatinib; first compound 8 µM) | relative viability (XMD14-99 + Decitabine; first compound 0.08 µM) | relative viability (XMD14-99 + Decitabine; first compound 0.8 µM) | relative viability (XMD14-99 + Decitabine; first compound 2.53 µM) | relative viability (XMD14-99 + Decitabine; first compound 8 µM) | relative viability (AZD1208 + Luminespib; first compound 0.08 µM) | relative viability (AZD1208 + Luminespib; first compound 0.253 µM) | relative viability (AZD1208 + Luminespib; first compound 0.8 µM) | relative viability (AZD1208 + Luminespib; first compound 2.53 µM) | relative viability (AZD1208 + Luminespib; first compound 8 µM) | relative viability (XMD14-99 + Bortezomib; first compound 0.08 µM) | relative viability (XMD14-99 + Bortezomib; first compound 0.8 µM) | relative viability (XMD14-99 + Bortezomib; first compound 2.53 µM) | relative viability (XMD14-99 + Bortezomib; first compound 8 µM)
NCI-H522 | 0.828 | 0.774 | 0.911 | 0.78 | 0.717 | 0.703 | 0.648 | 0.554 | 0.672 | 1.03 | 1.15 | 0.841 | 0.935 | 0.973 |  |  |  | 
NCI-H1299 |  |  |  |  |  |  |  |  |  |  |  |  |  |  | 1.09 | 1 | 0.944 | 0.83
NCI-H1395 | 0.453 | 0.373 | 0.36 | 0.38 | 0.356 | 0.696 | 0.7 | 0.712 | 0.653 | 0.705 | 0.784 | 0.608 | 0.539 | 0.553 |  |  |  | 
NCI-H1563 | 0.465 | 0.433 | 0.421 | 0.447 | 0.395 |  |  |  |  | 0.556 | 0.532 | 0.561 | 0.478 | 0.504 | 0.885 | 1.07 | 0.85 | 0.686
NCI-H1623 | 0.633 | 0.514 | 0.484 | 0.438 | 0.632 |  |  |  |  | 0.444 | 0.393 | 0.365 | 0.324 | 0.372 |  |  |  | 
NCI-H1648 |  |  |  |  |  | 0.47 | 0.501 | 0.479 | 0.455 |  |  |  |  |  |  |  |  | 
NCI-H1703 |  |  |  |  |  |  |  |  |  |  |  |  |  |  | 0.334 | 0.235 | 0.268 | 0.211
NCI-H1793 | 0.333 | 0.347 | 0.358 | 0.427 | 0.298 | 0.502 | 0.521 | 0.473 | 0.427 | 0.181 | 0.17 | 0.14 | 0.176 | 0.152 |  |  |  | 
